T/C data for twelve compounds are collected here from PubChem BioAssay AID328 (DTP/NCI, 2004).

“And” between values parts separate entries of the source, which are not always exact repeats. Equal entries are not always repeated. Inconclusive results and toxic doses are left out.

The assay has as its system BDF1 mice, P388 leukemia ip, median survival T/C. Kind of assay: NCI In Vivo Anticancer Drug Screen. Data for tumor model P388 Leukemia (intraperitoneal) in B6D2F1 (BDF1) mice. The following applies: endpoint: median survival time, higher = longer survival. In a few lines: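 Mice carrying the transplantable tumour receive compound or vehicle. Survival is followed in each arm, and the treated measure is divided by the vehicle measure.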

Where [1] appears, read: dose: 12.5 mg/kg/injection, schedule: Q01DX009 (ip), vehicle: saline.
Where [2] appears, read: dose: 50.0 mg/kg/injection, schedule: Q01DX009 (ip), vehicle: saline.
[3] abbreviates: dose: 50.0 mg/kg/injection, schedule: Q04DX003 (ip), vehicle: saline with Tween-80.
Where [4] appears, read: dose: 1.0 mg/kg/injection, schedule: Q01DX010 (ip), vehicle: saline.

For the compound `O=C1C=CC(=O)O1` (tested in a mixture with another compound), the T/C is 100 % of control (dose: 0.19 mg/kg/injection, schedule: Q01DX009 (ip), vehicle: Klucel (hydroxypropylcellulose) (HPC)); 95 % of control (dose: 0.22 mg/kg/injection, schedule: Q01DX009 (ip), vehicle: Klucel (hydroxypropylcellulose) (HPC)); 118 % of control (dose: 0.39 mg/kg/injection, schedule: Q01DX009 (ip), vehicle: Klucel (hydroxypropylcellulose) (HPC)); 90 % of control (dose: 0.44 mg/kg/injection, schedule: Q01DX009 (ip), vehicle: Klucel (hydroxypropylcellulose) (HPC)); 90 % of control (dose: 0.78 mg/kg/injection, schedule: Q01DX009 (ip), vehicle: Klucel (hydroxypropylcellulose) (HPC)); 95 % of control (dose: 0.88 mg/kg/injection, schedule: Q01DX009 (ip), vehicle: Klucel (hydroxypropylcellulose) (HPC)). The T/C (dose: 1.3 mg/kg/injection, schedule: Q01DX009 (ip), vehicle: Klucel (hydroxypropylcellulose) (HPC)) was 109 % of control; the T/C (dose: 1.56 mg/kg/injection, schedule: Q01DX009 (ip), vehicle: other) is 95 % of control; the T/C (dose: 2.3 mg/kg/injection, schedule: Q04DX003 (ip), vehicle: Klucel (hydroxypropylcellulose) (HPC)) was 91 % of control; the T/C (dose: 3.5 mg/kg/injection, schedule: Q04DX003 (ip), vehicle: Klucel (hydroxypropylcellulose) (HPC)) was 116 % of control; the T/C (dose: 5.2 mg/kg/injection, schedule: Q04DX003 (ip), vehicle: Klucel (hydroxypropylcellulose) (HPC)) is 100 % of control; the T/C (dose: 5.8 mg/kg/injection, schedule: Q04DX003 (ip), vehicle: Klucel (hydroxypropylcellulose) (HPC)) is 100 % of control. In addition, the T/C is, setting by setting: (dose: 6.25 mg/kg/injection, schedule: Q01DX009 (ip), vehicle: saline) 88 % of control; (dose: 7.2 mg/kg/injection, schedule: Q04DX003 (ip), vehicle: Klucel (hydroxypropylcellulose) (HPC)) 95 % of control; (dose: 8.8 mg/kg/injection, schedule: Q04DX003 (ip), vehicle: Klucel (hydroxypropylcellulose) (HPC)) 100 % of control; under setting [1], 97 % of control; (dose: 12.5 mg/kg/injection, schedule: Q04DX003 (ip), vehicle: saline) 104 % of control; (dose: 13.0 mg/kg/injection, schedule: Q04DX003 (ip), vehicle: Klucel (hydroxypropylcellulose) (HPC)) 104 % of control. In addition, the T/C is 102 % of control (dose: 25.0 mg/kg/injection, schedule: Q04DX003 (ip), vehicle: saline); 102 % of control and 112 % of control and 113 % of control under setting [2]; 115 % of control and 122 % of control and 116 % of control (dose: 50.0 mg/kg/injection, schedule: Q04DX003 (ip), vehicle: saline); 122 % of control (dose: 150.0 mg/kg/injection, schedule: Q04DX003 (ip), vehicle: saline); 94 % of control [middle of 4 runs] (dose: 200.0 mg/kg/injection, schedule: Q01DX009 (ip), vehicle: saline); 100 % of control (dose: 300.0 mg/kg/injection, schedule: Q01DX009 (ip), vehicle: saline). Further, the T/C is 108 % of control and 114 % of control (dose: 300.0 mg/kg/injection, schedule: Q04DX003 (ip), vehicle: saline); 121 % of control (dose: 400.0 mg/kg/injection, schedule: Q04DX003 (ip), vehicle: saline).

`Oc1ccc(Cl)c2cccnc12`: the T/C is 104 % of control (dose: 12.5 mg/kg/injection, schedule: Q01DX010 (ip), vehicle: carboxymethylcellulose (CMC)); 104 % of control (dose: 25.0 mg/kg/injection, schedule: Q01DX010 (ip), vehicle: carboxymethylcellulose (CMC)); 109 % of control (dose: 50.0 mg/kg/injection, schedule: Q01DX010 (ip), vehicle: carboxymethylcellulose (CMC)).

Consider `COC(=O)CCCCI`, for which the T/C reads like this: (dose: 50.0 mg/kg/injection, schedule: Q01DX005 (ip), vehicle: saline with Tween-80) 105 % of control; (dose: 100.0 mg/kg/injection, schedule: Q01DX005 (ip), vehicle: saline with Tween-80) 110 % of control; (dose: 200.0 mg/kg/injection, schedule: Q01DX005 (ip), vehicle: saline with Tween-80) 107 % of control.

Take `COc1ccc(C(C#N)CC(=O)c2ccc(OCc3ccccc3)c(OC)c2)cc1OC` (stereo not drawn): the T/C by setting is: (dose: 50.0 mg/kg/injection, schedule: Q04DX003 (ip), vehicle: other) 96 % of control; (dose: 100.0 mg/kg/injection, schedule: Q04DX003 (ip), vehicle: other) 88 % of control; (dose: 200.0 mg/kg/injection, schedule: Q04DX003 (ip), vehicle: other) 87 % of control; (dose: 400.0 mg/kg/injection, schedule: Q04DX003 (ip), vehicle: other) 90 % of control.

As to `CC1CNC2C(C)C3C(CC4C5CCC6CC(N)CCC6(C)C5CCC43C)OC2(O)C1` (stereo not drawn), the T/C runs as follows: (dose: 12.5 mg/kg/injection, schedule: Q04DX003 (ip), vehicle: saline with Tween-80) 112 % of control; (dose: 25.0 mg/kg/injection, schedule: Q04DX003 (ip), vehicle: saline with Tween-80) 100 % of control; under setting [3], 91 % of control.

As for `CC([OH2+])CNCCN.CC([OH2+])CNCCN.[Cu+2].[O-][Cl+3]([O-])([O-])[O-]` (stereo not drawn), the T/C is, setting by setting: under setting [1], 108 % of control; (dose: 25.0 mg/kg/injection, schedule: Q01DX009 (ip), vehicle: saline) 115 % of control; under setting [2], 114 % of control.

As to `CCN1CCC2(CC1)COCc1ccccc12`, the T/C was 107 % of control (dose: 50.0 mg/kg/injection, schedule: Q04DX002 (ip), vehicle: saline with Tween-80) and 91 % of control (dose: 100.0 mg/kg/injection, schedule: Q04DX002 (ip), vehicle: saline with Tween-80).

For the compound `O=C1C=CC(=O)N1CO`, the T/C is, setting by setting: (dose: 0.62 mg/kg/injection, schedule: Q04DX003 (ip), vehicle: saline) 100 % of control; (dose: 1.25 mg/kg/injection, schedule: Q01DX009 (ip), vehicle: saline) 109 % of control; (dose: 1.25 mg/kg/injection, schedule: Q04DX003 (ip), vehicle: saline) 95 % of control; (dose: 2.5 mg/kg/injection, schedule: Q01DX009 (ip), vehicle: saline) 118 % of control; (dose: 2.5 mg/kg/injection, schedule: Q04DX003 (ip), vehicle: saline) 90 % of control; (dose: 3.6 mg/kg/injection, schedule: Q04DX003 (ip), vehicle: saline) 100 % of control. In addition, the T/C is, setting by setting: (dose: 5.6 mg/kg/injection, schedule: Q04DX003 (ip), vehicle: saline) 104 % of control; (dose: 8.4 mg/kg/injection, schedule: Q04DX003 (ip), vehicle: saline) 104 % of control.

Regarding `CO[C@H]1C[C@H](O[C@H]2CC[C@]3(C=O)[C@H]4CC[C@]5(C)[C@@H](C6=CC(=O)OC6)CC[C@]5(O)[C@@H]4CC[C@]3(O)C2)O[C@H](C)[C@H]1O[C@@H]1O[C@H](CO[C@@H]2O[C@H](CO)[C@@H](O)[C@H](O)[C@H]2O)[C@@H](O)[C@H](O)[C@H]1O`, the T/C is 115 % of control (dose: 0.5 mg/kg/injection, schedule: Q01DX010 (ip), vehicle: saline) and 110 % of control under setting [4].

As to `CCOc1ccc(Nc2cc([N+](=O)[O-])ccc2C(=O)O)cc1`, the T/C is, setting by setting: under setting [3], 100 % of control; (dose: 100.0 mg/kg/injection, schedule: Q04DX003 (ip), vehicle: saline with Tween-80) 90 % of control; (dose: 200.0 mg/kg/injection, schedule: Q04DX003 (ip), vehicle: saline with Tween-80) 90 % of control.

For the compound `CSc1ccc(NC(=O)C(O)C(O)C(O)C(O)CO)cc1` (stereo not drawn), the T/C is 100 % of control (dose: 75.0 mg/kg/injection, schedule: Q01DX009 (ip), vehicle: saline with Tween-80); 104 % of control (dose: 100.0 mg/kg/injection, schedule: Q04DX003 (ip), vehicle: saline sonified); 100 % of control (dose: 150.0 mg/kg/injection, schedule: Q01DX009 (ip), vehicle: saline with Tween-80); 104 % of control (dose: 200.0 mg/kg/injection, schedule: Q04DX003 (ip), vehicle: saline sonified); 100 % of control (dose: 300.0 mg/kg/injection, schedule: Q01DX009 (ip), vehicle: saline with Tween-80); 104 % of control (dose: 400.0 mg/kg/injection, schedule: Q04DX003 (ip), vehicle: saline sonified).

For the compound `COC(=O)C[C@](O)(CCC(C)C)C(=O)O[C@@H]1C(OC)=C[C@]23CCCN2CCc2cc4c(cc2[C@H]13)OCO4`, the T/C (dose: 0.06 mg/kg/injection, schedule: Q01DX010 (ip), vehicle: saline) is 118 % of control; the T/C (dose: 0.13 mg/kg/injection, schedule: Q01DX010 (ip), vehicle: saline) was 109 % of control; the T/C (dose: 0.25 mg/kg/injection, schedule: Q01DX010 (ip), vehicle: saline) was 118 % of control; the T/C under setting [4] was 155 % of control; the T/C (dose: 2.0 mg/kg/injection, schedule: Q01DX010 (ip), vehicle: saline) is 180 % of control.
